These results are taken from paper PMC6268061, “Investigation of the Biological Properties of (Hetero)Aromatic Thiosemicarbazones” (Molecules, 2012).

Values after ≈ are worked out from the molar mass of the structure shown. Like-named read-outs stand apart in the source and are kept apart here.

Data set [1] concerns Candida albicans ATCC 44859. The data set can be described thus: In vitro antifungal susceptibility, broth microdilution. It counts as cell-based. As to conditions: read-out: MIC (IC80) CA. On the technique in general: In broth dilution the organism is exposed to a series of concentrations in liquid medium.
Data set [2] concerns Trichophyton mentagrophytes 445. Described as above. It counts as cell-based. To be noted: read-out: MIC (IC50) TM.
Data set [3] can be described thus: Lipophilicity determination using RP-HPLC (capacity factor, log k). As to conditions: C18, MeOH 55%/H2O 45%. It counts as physicochemical. In outline: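 Isocratic RP-HPLC on a C18 column (5 μm, 4.6 × 250 mm), 55% MeOH/45% water at 0.9 mL/min, 30 °C, UV detection 210 nm. Dead time from KI; capacity factor k = (tR − tD)/tD, with log k taken as the lipophilicity index on log P scale.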

The subject of data set [4] is photosynthetic electron transport (PET) in spinach chloroplasts. In words: Inhibition of photosynthetic electron transport (PET) in spinach chloroplasts. As to conditions: DCPIP photoreduction. It counts as biochemical, Spinacia oleracea L. The method, boiled down:
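PET in spinach chloroplasts was followed spectrophotometrically as DCPIP photoreduction in pH 7.2 phosphate buffer with sucrose, MgCl2 and NaCl, at 30 mg/L chlorophyll, under halogen-lamp irradiation at 22 °C. Compounds were added in DMSO. IC50 is the molar concentration halving the rate relative to untreated control.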

The test system of a further data set is Absidia corymbifera 272. In words: In vitro antifungal susceptibility, broth microdilution. The data set is classed as cell-based. As to conditions: read-out: MIC (IC50) AC.
A further data set relates to Candida tropicalis 156. The data set is described as above. The data set is classed as cell-based. As to conditions: read-out: MIC (IC80) CT.
The test system of the next data set is Candida glabrata 20/I. The description is as above. It counts as cell-based. To be noted: Nakaseomyces glabratus, read-out: MIC (IC80) CG.
The subject of data set [5] is HCT-116 human colon cancer cells (p53 wild type). More on the design: method as in PMID 22858101. To be noted: footnote 3: anticancer activity described elsewhere ref [34],[44]; cited from earlier work.
Data set [6] deals with Trichosporon beigelii 1188. The data set can be described thus: In vitro antifungal susceptibility, broth microdilution. The data set is classed as cell-based. As to conditions: read-out: MIC (IC80) TB. The method, boiled down:
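Twofold dilutions (500 to 0.975 μmol/L final) in RPMI 1640 with MOPS, pH 7.0, per CLSI broth microdilution. MIC taken as IC80 for yeasts (M27-A2) or IC50 for moulds (M38-A) versus drug-free control, read after 24 and 48 h static incubation at 35 °C.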

In another data set the test system is Candida krusei ATCC 6258. The description is as above. As to conditions: Pichia kudriavzevii, read-out: MIC (IC80) CK. It counts as cell-based.
For data set [7], the system named is Aspergillus fumigatus 231. The data set is described as above. The data set is classed as cell-based. As to conditions: read-out: MIC (IC50) AF.
[8] abbreviates: Trichophyton mentagrophytes, 445, 72 h.
The mark [9] stands for this setting: Trichophyton mentagrophytes, 445, 120 h.
[10] abbreviates: Lichtheimia corymbifera, 272, 24 h.
Where [11] appears, read: Lichtheimia corymbifera, 272, 48 h.
Where [12] appears, read: Trichosporon beigelii, 1188, 24 h.
Where [13] appears, read: Trichosporon beigelii, 1188, 48 h.
The mark [14] stands for this setting: Aspergillus fumigatus, 231, 24 h.
[15] abbreviates: Aspergillus fumigatus, 231, 48 h.

Take `CN(C)C(=S)NN/C=C/c1ccc2ccccc2n1` [Compound 4b, (E)-2-(Quinolin-2-ylvinyl)-N,N-dimethylhydrazinecarbothioamide]: the minimum inhibitory concentration (MIC) in [1] (ATCC44859, 24 h) is 1.95 µM (≈ 0.531 µg/mL); in [1] (ATCC44859, 48 h), 1.95 µM (≈ 0.531 µg/mL); in the data set on Candida tropicalis 156 (Candida tropicalis, 156, 24 h), 1.95 µM (≈ 0.531 µg/mL); in the data set with Candida tropicalis 156 (Candida tropicalis, 156, 48 h), 7.81 µM (≈ 2.13 µg/mL); with Candida glabrata 20/I (24 h), 1.95 µM (≈ 0.531 µg/mL); in the data set on Candida glabrata 20/I (48 h) it was 1.95 µM (≈ 0.531 µg/mL). In addition, the MIC in data set [6] (setting [12]) stood at 1.95 µM (≈ 0.531 µg/mL); in data set [6] (setting [13]) it was 1.95 µM (≈ 0.531 µg/mL); in the data set on Candida krusei ATCC 6258 (ATCC6258, 24 h) it was 3.9 µM (≈ 1.06 µg/mL); in the data set with Candida krusei ATCC 6258 (ATCC6258, 48 h), 3.9 µM (≈ 1.06 µg/mL). Besides, the concentration for half-maximal inhibition (IC50) was 3.9 µM in [2] (setting [8]); 3.9 µM in data set [2] (setting [9]); 1370 µM in data set [4]; 3.9 µM in the data set with Absidia corymbifera 272 (setting [10]); 3.9 µM in the data set with Absidia corymbifera 272 (setting [11]); 4.86 ± 1.48 µM in data set [5]. Also, the IC50 in data set [7] (setting [14]) and in data set [7] (setting [15]) was 3.9 µM in each case. The compound further yielded a log k in data set [3] of 0.6184.
For `CN(C)C(=S)NN=Cc1c(O)ccc2cccnc12` [Compound 4j], the minimal inhibitory concentration (MIC) in [1] (ATCC44859, 24 h) is 125 µM (≈ 34.3 µg/mL); in data set [1] (ATCC44859, 48 h), above 250 µM; with Candida tropicalis 156 (Candida tropicalis, 156, 24 h) it was above 250 µM; in the data set on Candida tropicalis 156 (Candida tropicalis, 156, 48 h), above 250 µM; in the data set on Candida glabrata 20/I (24 h), 125 µM (≈ 34.3 µg/mL); with Candida glabrata 20/I (48 h), 125 µM (≈ 34.3 µg/mL). The MIC is 125 µM (≈ 34.3 µg/mL) in data set [6] (setting [12]); above 250 µM in data set [6] (setting [13]); above 250 µM in the data set with Candida krusei ATCC 6258 (ATCC6258, 24 h); above 250 µM in the data set on Candida krusei ATCC 6258 (ATCC6258, 48 h). For the same compound, the IC50 was 125 µM in [2] (setting [8]); 125 µM in data set [2] (setting [9]); 520 µM in data set [4]; above 250 µM in the data set on Absidia corymbifera 272 (setting [10]); above 250 µM with Absidia corymbifera 272 (setting [11]); 20.8 ± 5.34 µM in data set [5]. Also, the IC50 in [7] (setting [14]) and in data set [7] (setting [15]) was above 250 µM each time. Also, the log k in [3] is reported as 0.5831.

In general, MIC refers to the smallest concentration in the dilution series that meets the test's criterion for growth inhibition. Broadly, the IC50 is the point on the concentration scale where inhibition reaches its midpoint.
